For series [1] the following is noted: PAMPA, 18 h, 100 μM, pH 7.4. On the technique in general: The PAMPA barrier holds no transporters, so it reflects passive diffusion.
The subject of a further series is zebrafish larvae. The experiment in a line: Acute toxicity assay in zebrafish larvae (24 hours). It is filed as in vivo, Danio rerio. To be noted: for Mortality (dead larvae/total): 1 day. As to the method:
To evaluate the biosafety of compound NST0037, its toxicological effects on the zebrafish larvae model were analyzed by means of determining the safety parameters of the OECD C15 protocol.
The fertilized eggs were obtained by natural mating of the zebrafish (Danio rerio, AB strain). A total of 8-10 pairs were used for each cross and a total of 200-250 eggs were generated on average per pair. The eggs were collected immediately after spawning and were washed with dilution water (CaCl2.2H2O2 0.29 g/L, MgSO4.7H2O2 0.12 g/L, NaHCO3 0.065 g/L, KCl 0.006 g/L), the pH being adjusted to 7.8±0.2, in accordance with EC Regulation 440/2008, method C.1, and were deposited in a Petri dish.
The embryos were developed normally until 96 hours post-fertilization in their growth medium. […] […]. Each experiment was performed in triplicate.
The studies were conducted for 24 hours of treatment, thus performing an acute toxicity assay. […].
After the time of exposure of the substances under study, the record of the mortality of the larvae was determined. […].
[…]. The percentage of healthy larvae was defined as the number of live larvae without symptoms of external physiopathological anomalies (morphological and/or behavioral), the latter being a parameter determining the biosafety of a substance under study and is complementary to the survival rates and to LD50. […].
The anomalies recorded in the study are described below: • Thrombosis in the yolk sac: it is a clot inside a blood vessel, in this case of any vessel irrigating the yolk. • Cardiac thrombosis: occurs in a cardiac vessel. • Cardiac edema (or hydrops): accumulation of fluid in the intercellular tissue space and also in the cavities of the organism. In the case of the heart, it causes the accumulation of fluid in the pericardial sac.

Series [2] relates to FVB/NHan mice inoculated with kainate (KA). Put plainly: Neuronal death in the hippocampus of mice caused by kainate (hematoxylin-eosin). It is filed as in vivo. To be noted: 50 mg/kg i.p., 7 days. As to the method: All the animals included for the experimental process were 12-week old males of the FVB/NHan strain. The experiments were conducted strictly following the Guidance on the Operation of Animals (Scientific Procedures, Act. 1986). The animals had their respective quarantine period and were treated with maximum precaution to minimize possible contaminations for inoculations and handling. […]

In the next series the test system is ApoB100 mice. Put plainly: Hypocholesterolemic effect in endogenous hyperlipidemia model, single i.p. dose. Format: in vivo. To be noted: 50 mg/kg i.p., 12 hours. As to the method:
All the animals included for the experimental process were 46-week old males of the ApoB100 strain, which strain has a deficiency in removing cholesterol from the blood which causes an abnormally high increase of plasma cholesterol. The experiments were conducted strictly following the Guidance on the Operation of Animals (Scientific Procedures, Act. 1986). The animals had their respective quarantine period and were treated with maximum precaution to minimize possible contaminations for inoculations and handling.
In order to conduct the experiment on the fasting animals, blood was extracted by ocular puncture. The plasma was obtained from said blood, in which plasma total cholesterol levels and levels of its fractions were determined prior to administration of the substances under study. Immediately after that, the animals were intraperitoneally inoculated with 50 mg/kg of each of the test compounds. Four animals were treated with the vehicle and were considered the control group. […] Finally, a third group of five mice received 50 mg/Kg of NST0037. Twelve hours after the treatments, blood was again extracted from the fasting animals and the plasma was obtained from said blood.

These results are taken from patent US20140309295A1, “ANTIEPILEPTIC, HYPOCHOLESTEROLEMIC AND NEUROPROTECTIVE COMPOUND” (NEURON BIOPHARMA, S.A., priority 2009, published 2014).

`CCC(CC)C(=O)O[C@H]1C[C@@H](C)C=C2C=C[C@H](C)[C@H](CC[C@@H]3C[C@@H](O)CC(=O)O3)[C@H]21` [NST0037, (1S,2S,6R,8S,8aR)-1,2,6,7,8,8a-hexahydro-3,7-dimethyl-8-[2-[(2R,4R)-tetrahydro-4-hydroxy-6-oxo-2H-pyran-2-yl]ethyl]-1-naphthalenyl-2-ethyl-butyrate]: the “% BBB Passage” value in series [1] worked out at 22.5 ± 5.5%. For the same molecule, the “Mortality (dead larvae/total)” value in the series on zebrafish larvae (Dose 10 mg/Kg), in the series with zebrafish larvae (Dose 30 mg/Kg), with zebrafish larvae (Dose 100 mg/Kg), with zebrafish larvae (Dose 300 mg/Kg) and in the series with zebrafish larvae (Dose 1000 mg/Kg) was 0/30 in each case. The “percentage of healthy larvae” value in the series on zebrafish larvae (highest study dose (1000 mg/Kg), 24 hours) was found to be 67.9±3.3%. The “neuronal death in hippocampal CA1 and CA2 regions” value in series [2] (NST0037+KA+NST0037 regimen, KA 25 mg/Kg) was “completely protected against neuronal death”; in series [2] (PBS+KA+NST0037 regimen (treatment after KA)) it was “qualitatively reduced neuronal death and damage”. Also, the HDL-c levels entry with ApoB100 mice is “without changing”. The LDL-c levels entry in the series with ApoB100 mice is “considerably reduced”. For the same molecule, the VLDL-c levels entry with ApoB100 mice is on record as “considerably reduced”. Moreover, the “esterified cholesterol (EC) levels” value with ApoB100 mice is “reduced the EC levels in a similar manner”. Also, the “free cholesterol (FC) levels” value in the series with ApoB100 mice is listed as “without changing FC levels”. Further, the “plasma total cholesterol levels” value in the series with ApoB100 mice (male ApoB100 mice) was “significant hypocholesterolemic effect”.
